target: recombinant Mcl-1 (residues 172-327) (Homo sapiens (Human), UniProt Q07820); test: Bak peptide fluorescence polarization anisotropy competition assay, Mcl-1; type: binding; details: not given
Sequence (Q07820 172-327): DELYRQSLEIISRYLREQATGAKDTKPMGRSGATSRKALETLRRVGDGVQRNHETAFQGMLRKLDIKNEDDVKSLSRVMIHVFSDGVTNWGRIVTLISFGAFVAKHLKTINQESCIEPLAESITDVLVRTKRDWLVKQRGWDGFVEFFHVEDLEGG

SMILES	Ki [nM]
Cc1cc(OCCCc2c(C(=O)NS(=O)(=O)CCNC(=O)c3cn(Cc4ccccc4)c4ccccc34)[nH]c3ccccc23)cc(C)c1Cl [Example 201, N-((2-(1-benzyl-1H-indole-3-carboxamido)ethyl)sulfonyl)-3-(3-(4-chloro-3,5-dimethylphenoxy)propyl)-1H-indole-2-carboxamide]	101 to 299
Cc1cccc(S(=O)(=O)NC(=O)c2c(CCCOc3cc(C)c(Cl)c(C)c3)c3ccc(Cl)cc3n2Cc2cccnc2)c1 [Example 273, 6-chloro-3-(3-(4-chloro-3,5-dimethylphenoxy)propyl)-1-(pyridin-3-ylmethyl)-N-(m-tolylsulfonyl)-1H-indole-2-carboxamide]	101 to 299

same assay, conditions: Table 2, Ki range; FITC-Bak peptide 10 nM, Mcl-1 14 nM; read-out: Ki for inhibition of Mcl-1

SMILES	Ki [nM]
Cc1cc(OCCCc2c(C(=O)NS(=O)(=O)c3ccccc3)[nH]c3c(-c4ccncc4C(F)(F)F)cccc23)cc(C)c1Cl [Example 104, 3-(3-(4-chloro-3,5-dimethylphenoxy)propyl)-N-(phenylsulfonyl)-7-(3-(trifluoromethyl)pyridin-4-yl)-1H-indole-2-carboxamide]	≤ 100
Cc1cc(OCCCc2c(C(=O)NS(=O)(=O)CCNC(=O)C(C)C)[nH]c3cc(Cl)ccc23)cc(C)c1Cl [Example 253, 6-chloro-3-(3-(4-chloro-3,5-dimethylphenoxy)propyl)-N-((2-isobutyramidoethyl)sulfonyl)-1H-indole-2-carboxamide]	≤ 100
CC(=O)N1CCN(c2ccc(OCc3nn(C)c(C)c3-c3cccc4c(CCCOc5cc(C)c(Cl)c(C)c5)c(C(=O)NS(=O)(=O)c5ccccc5)n(Cc5cccnc5)c34)cc2)CC1 [Example 124, 7-(3-((4-(4-acetylpiperazin-1-yl)phenoxy)methyl)-1,5-dimethyl-1H-pyrazol-4-yl)-3-(3-(4-chloro-3,5-dimethylphenoxy)propyl)-N-(phenylsulfonyl)-1-(pyridin-3-ylmethyl)-1H-indole-2-carboxamide]	≤ 100
Cc1cc(OCCCc2c(C(=O)NS(=O)(=O)c3ccccc3)[nH]c3c(-c4ccnc5ccccc45)cccc23)cc(C)c1Cl [Example 92, 3-(3-(4-chloro-3,5-dimethylphenoxy)propyl)-N-(phenylsulfonyl)-7-(quinolin-4-yl)-1H-indole-2-carboxamide]	≤ 100
Cc1cc(OCCCc2c(C(=O)NS(=O)(=O)c3ccccc3)[nH]c3c(-c4ncccc4C(F)(F)F)cccc23)cc(C)c1Cl [Example 102, 3-(3-(4-chloro-3,5-dimethylphenoxy)propyl)-N-(phenylsulfonyl)-7-(3-(trifluoromethyl)pyridin-2-yl)-1H-indole-2-carboxamide]	≤ 100
CCn1nccc1-c1cccc2c(CCCOc3cc(C)c(Cl)c(C)c3)c(C(=O)NS(=O)(=O)c3ccccc3)[nH]c12 [Example 302, 3-(3-(4-chloro-3,5-dimethylphenoxy)propyl)-7-(1-ethyl-1H-pyrazol-5-yl)-N-(phenylsulfonyl)-1H-indole-2-carboxamide]	≤ 100
Cc1cc(OCCCc2c(C(=O)NS(=O)(=O)c3ccccc3)[nH]c3c(-c4c(CO)nn(C)c4C)cccc23)cc(C)c1Cl [Example 127, 3-(3-(4-chloro-3,5-dimethylphenoxy)propyl)-7-(3-(hydroxymethyl)-1,5-dimethyl-1H-pyrazol-4-yl)-N-(phenylsulfonyl)-1H-indole-2-carboxamide]	≤ 100

same assay, conditions: read-out: Ki for inhibition of Mcl-1

SMILES	Ki [nM]
Cc1occc1C(=O)NCCS(=O)(=O)NC(=O)c1[nH]c2cc(Cl)ccc2c1CCCOc1cccc2ccccc12 [Example 229, 6-chloro-N-((2-(2-methylfuran-3-carboxamido)ethyl)sulfonyl)-3-(3-(naphthalen-1-yloxy)propyl)-1H-indole-2-carboxamide]	301 to 500
Cc1ccc2c(CCCOc3cc(C)c(Cl)c(C)c3)c(C(=O)NS(C)(=O)=O)[nH]c2c1 [Example 117, 3-(3-(4-chloro-3,5-dimethylphenoxy)propyl)-6-methyl-N-(methylsulfonyl)-1H-indole-2-carboxamide]	301 to 500
Cc1cc(OCCCc2c(C(=O)NS(=O)(=O)C3CC3)[nH]c3cc(Cl)ccc23)cc(C)c1Cl [Example 65, 6-chloro-3-(3-(4-chloro-3,5-dimethylphenoxy)propyl)-N-(cyclopropylsulfonyl)-1H-indole-2-carboxamide]	101 to 299
Cc1cc(OCCCc2c(C(=O)NS(=O)(=O)CCNC(=O)c3cnn(Cc4ccccc4)c3)[nH]c3ccccc23)cc(C)c1Cl [Example 184, N-((2-(1-benzyl-1H-pyrazole-4-carboxamido)ethyl)sulfonyl)-3-(3-(4-chloro-3,5-dimethylphenoxy)propyl)-1H-indole-2-carboxamide]	1000 to 9990
Cc1cc(OCCCc2c(C(=O)NS(C)(=O)=O)n(Cc3cccnc3)c3cc(Cl)ccc23)cc(C)c1Cl [Example 271, 6-chloro-3-(3-(4-chloro-3,5-dimethylphenoxy)propyl)-N-(methylsulfonyl)-1-(pyridin-3-ylmethyl)-1H-indole-2-carboxamide]	301 to 500
Cc1cc(OCCCc2c(C(=O)NS(=O)(=O)CCCNC(=O)CCc3cc(-c4ccccc4)n[nH]3)[nH]c3cc(Cl)ccc23)cc(C)c1Cl [Example 257, 6-chloro-3-(3-(4-chloro-3,5-dimethylphenoxy)propyl)-N-((3-(3-(3-phenyl-1H-pyrazol-5-yl)propanamido)propyl)sulfonyl)-1H-indole-2-carboxamide]	301 to 500
Cc1cc(OCCCc2c(C(=O)NS(=O)(=O)CCNC(=O)Cc3cn(C)c4ccccc34)[nH]c3cc(Cl)ccc23)cc(C)c1Cl [Example 235, 6-chloro-3-(3-(4-chloro-3,5-dimethylphenoxy)propyl)-N-((2-(2-(1-methyl-1H-indol-3-yl)acetamido)ethyl)sulfonyl)-1H-indole-2-carboxamide]	101 to 299
Cc1cc(OCCCc2c(C(=O)NS(=O)(=O)CCNC(=O)c3ccoc3)[nH]c3ccccc23)cc(C)c1Cl [Example 158, 3-(3-(4-chloro-3,5-dimethylphenoxy)propyl)-N-((2-(furan-3-carboxamido)ethyl)sulfonyl)-1H-indole-2-carboxamide]	101 to 299
Cc1cc(OCCCc2c(C(=O)NS(=O)(=O)CCNC(=O)c3ccoc3C)[nH]c3cc(Cl)ccc23)cc(C)c1Cl [Example 227, 6-chloro-3-(3-(4-chloro-3,5-dimethylphenoxy)propyl)-N-((2-(2-methylfuran-3-carboxamido)ethyl)sulfonyl)-1H-indole-2-carboxamide]	101 to 299
Cc1cc(OCCCc2c(C(=O)NS(=O)(=O)c3ccc(Oc4ccccc4)cc3)[nH]c3ccccc23)cc(C)c1Cl [Example 132, 3-(3-(4-chloro-3,5-dimethylphenoxy)propyl)-N-((4-phenoxyphenyl)sulfonyl)-1H-indole-2-carboxamide]	301 to 500
CS(=O)(=O)NC(=O)c1[nH]c2ccccc2c1CCCOc1ccc(Cl)cc1 [Example 35, 3-(3-(4-chlorophenoxy)propyl)-N-(methylsulfonyl)-1H-indole-2-carboxamide]	10000 to 50000
O=C(NS(=O)(=O)CCNC(=O)C1CCCCC1)c1[nH]c2cc(Cl)ccc2c1CCCOc1cccc2ccccc12 [Example 228, 6-chloro-N-((2-(cyclohexanecarboxamido)ethyl)sulfonyl)-3-(3-(naphthalen-1-yloxy)propyl)-1H-indole-2-carboxamide]	301 to 500
O=C(O)c1sc2cc(-c3ccccc3)ccc2c1CCCOc1cccc2ccccc12 [Example 13, 3-(3-(naphthalen-1-yloxy)propyl)-6-phenylbenzo[b]thiophene-2-carboxylic acid]	1000 to 9990
Cc1cc(OCCCc2c(C(=O)NS(=O)(=O)CCNC(=O)c3cc(F)cc(F)n3)[nH]c3ccccc23)cc(C)c1Cl [Example 191, 3-(3-(4-chloro-3,5-dimethylphenoxy)propyl)-N-((2-(4,6-difluoropicolinamido)ethyl)sulfonyl)-1H-indole-2-carboxamide]	1000 to 9990
CS(=O)(=O)NC(=O)c1[nH]c2ccccc2c1CCCOc1ccc2c(c1)CCCC2 [Example 38, N-(methylsulfonyl)-3-(3-((5,6,7,8-tetrahydronaphthalen-2-yl)oxy)propyl)-1H-indole-2-carboxamide]	1000 to 9990
Cc1cc(OCCCc2c(C(=O)NS(=O)(=O)CCNC(=O)c3cccc(Oc4ccccc4)c3)n(Cc3cccnc3)c3cc(Cl)ccc23)cc(C)c1Cl [Example 276, 6-chloro-3-(3-(4-chloro-3,5-dimethylphenoxy)propyl)-N-((2-(3-phenoxybenzamido)ethyl)sulfonyl)-1-(pyridin-3-ylmethyl)-1H-indole-2-carboxamide]	301 to 500
Cc1cc(OCCCc2c(C(=O)NS(=O)(=O)c3ccccc3)[nH]c3c(-c4ccsc4)cccc23)cc(C)c1Cl [Example 96, 3-(3-(4-chloro-3,5-dimethylphenoxy)propyl)-N-(phenylsulfonyl)-7-(thiophen-3-yl)-1H-indole-2-carboxamide]	101 to 299
Cc1cc(OCCCc2c(C(=O)NS(=O)(=O)CCNC(=O)c3cncs3)[nH]c3ccccc23)cc(C)c1Cl [Example 189, N-(2-(N-(3-(3-(4-chloro-3,5-dimethylphenoxy)propyl)-1H-indole-2-carbonyl)sulfamoyl)ethyl)thiazole-5-carboxamide]	501 to 999
Cc1cc(OCCCc2c(C(=O)NS(=O)(=O)c3ccc(Oc4ccc(Cl)c(Cl)c4)cc3)[nH]c3cc(Cl)ccc23)cc(C)c1Cl [Example 221, 6-chloro-3-(3-(4-chloro-3,5-dimethylphenoxy)propyl)-N-((4-(3,4-dichlorophenoxy)phenyl)sulfonyl)-1H-indole-2-carboxamide]	301 to 500
O=C(O)c1sc2c(NCc3ccccc3)cccc2c1CCCOc1cccc2ccccc12 [Example 73, 7-(benzylamino)-3-(3-(naphthalen-1-yloxy)propyl)benzo[b]thiophene-2-carboxylic acid]	1000 to 9990
Cc1ccccc1-c1cccc2c(CCCOc3cc(C)c(Cl)c(C)c3)c(C(=O)NS(C)(=O)=O)[nH]c12 [Example 84, 3-(3-(4-chloro-3,5-dimethylphenoxy)propyl)-N-(methylsulfonyl)-7-(o-tolyl)-1H-indole-2-carboxamide]	101 to 299
Cc1cc(OCCCc2c(C(=O)NS(=O)(=O)CCNC(=O)[C@@H]3Cc4ccccc4N3)[nH]c3ccccc23)cc(C)c1Cl [Example 168, (S)-3-(3-(4-chloro-3,5-dimethylphenoxy)propyl)-N-((2-(indoline-2-carboxamido)ethyl)sulfonyl)-1H-indole-2-carboxamide]	101 to 299
